Active and inactive are the calls of the source.
Experiments:
[1] = biological target: Tyrosine-protein kinase BTK (Homo sapiens, UniProt Q06187); assay type: functional
[2] = biological target: Serine/threonine-protein kinase PLK3 (Homo sapiens, UniProt Q9H4B4); assay type: functional
[3] = biological target: Receptor tyrosine-protein kinase erbB-2 (Homo sapiens, UniProt P04626); assay: Navigating the Kinome. Panel member name: ERBB2; assay type: functional
[4] = biological target: Mitogen-activated protein kinase 8 (Homo sapiens, UniProt P45983); assay type: functional;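 further: value comes from one member of a kinome-wide kinase profiling panel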
[5] = biological target: MAP kinase-activated protein kinase 5 (Homo sapiens, UniProt Q8IW41); assay type: functional;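 further: measured as one member of a kinome panel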
Insulin receptor = Insulin receptor (Homo sapiens, UniProt P06213); assay type: functional;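 further: insulin receptor kinase tested as one member of a kinome-wide kinase panel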
[6] = biological target: Mitogen-activated protein kinase 12 (Homo sapiens, UniProt P53778); assay type: functional;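 further: measured as one member of a kinome-wide kinase profiling panel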
[7] = biological target: Serine/threonine-protein kinase pim-1 (Homo sapiens, UniProt P11309); assay type: functional
[8] = biological target: Cell division cycle 7-related protein kinase (Homo sapiens, UniProt O00311); assay type: functional;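 further: value obtained from a kinome-wide kinase panel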
[9] = biological target: Calcium/calmodulin-dependent protein kinase type 1 (Homo sapiens, UniProt Q14012); assay type: functional
[10] = biological target: MAP kinase-activated protein kinase 3 (Homo sapiens, UniProt Q16644); assay type: functional;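 further: value comes from a kinome-wide profiling panel in which MAPKAPK3 is one of the panel members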
[11] = biological target: Receptor-type tyrosine-protein kinase FLT3 (Homo sapiens, UniProt P36888); assay type: functional;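 further: FLT3 was tested as one member of a kinome-wide kinase panel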
[12] = biological target: Cyclin-dependent kinase 7 (Homo sapiens, UniProt P50613); assay type: functional;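 further: value comes from a kinome-wide kinase profiling panel in which CDK7 is one member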
[13] = biological target: Ribosomal protein S6 kinase beta-1 (Homo sapiens, UniProt P23443); assay type: functional;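 further: measured as one member of a kinome-wide profiling panel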
[14] = biological target: cGMP-dependent protein kinase 1 (Homo sapiens, UniProt Q13976); assay type: functional;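 further: value from a kinome panel screen with PRKG1 as the panel member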
[15] = biological target: RAC-gamma serine/threonine-protein kinase (Homo sapiens, UniProt Q9Y243); assay type: functional
[16] = biological target: MAP kinase-interacting serine/threonine-protein kinase 2 (Homo sapiens, UniProt Q9HBH9); assay type: functional
[17] = biological target: Protein-tyrosine kinase 6 (Homo sapiens, UniProt Q13882); assay type: functional
[18] = biological target: Glyceraldehyde-3-phosphate dehydrogenase (Homo sapiens, UniProt P04406)
[19] = biological target: Heat shock cognate 71 kDa protein (Homo sapiens, UniProt P11142); assay: In Vitro Hsc70 Dose Response Fluorescence Polarization Assay. [Related pubchem assays: 1072 ]
Leucine aminopeptidase = biological target: T1, Leucine aminopeptidase (Plasmodium falciparum 3D7, UniProt Q8IL11); assay: P. falciparum M17LAP inhibitors, primary screen, biochemical, fluorogenic H-Leu-NHMec substrate, 1536-well (AID 1619); assay type: functional
T1 sequence (Q8IL11 whole entry): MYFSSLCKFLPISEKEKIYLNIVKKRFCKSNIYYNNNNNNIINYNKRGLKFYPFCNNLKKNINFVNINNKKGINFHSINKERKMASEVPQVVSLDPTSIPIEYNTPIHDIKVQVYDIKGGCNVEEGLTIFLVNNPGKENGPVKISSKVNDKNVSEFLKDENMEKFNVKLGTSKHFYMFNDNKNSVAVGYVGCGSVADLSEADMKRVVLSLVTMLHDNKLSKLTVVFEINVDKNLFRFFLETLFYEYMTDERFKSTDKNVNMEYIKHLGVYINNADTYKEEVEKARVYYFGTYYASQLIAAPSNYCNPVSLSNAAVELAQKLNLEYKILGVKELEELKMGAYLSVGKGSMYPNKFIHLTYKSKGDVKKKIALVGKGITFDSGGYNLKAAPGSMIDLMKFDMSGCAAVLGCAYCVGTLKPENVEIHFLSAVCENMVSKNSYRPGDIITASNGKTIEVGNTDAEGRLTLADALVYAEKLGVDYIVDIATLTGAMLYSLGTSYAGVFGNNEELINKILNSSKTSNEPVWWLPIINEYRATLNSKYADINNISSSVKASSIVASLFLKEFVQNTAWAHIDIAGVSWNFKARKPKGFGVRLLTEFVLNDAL

SUMO-activating enzyme = SUMO-activating enzyme (Homo sapiens, UniProt Q9UBT2); assay: blockers of UBC9-mediated SUMO conjugation – biochemical, AlphaScreen, SUMOylation inhibitor project, confirmation (AID 2018); assay type: functional
Protein skinhead-1 = biological target: T2, Protein skinhead-1 (Caenorhabditis elegans, UniProt P34707); assay type: functional
T2 sequence (P34707 whole entry): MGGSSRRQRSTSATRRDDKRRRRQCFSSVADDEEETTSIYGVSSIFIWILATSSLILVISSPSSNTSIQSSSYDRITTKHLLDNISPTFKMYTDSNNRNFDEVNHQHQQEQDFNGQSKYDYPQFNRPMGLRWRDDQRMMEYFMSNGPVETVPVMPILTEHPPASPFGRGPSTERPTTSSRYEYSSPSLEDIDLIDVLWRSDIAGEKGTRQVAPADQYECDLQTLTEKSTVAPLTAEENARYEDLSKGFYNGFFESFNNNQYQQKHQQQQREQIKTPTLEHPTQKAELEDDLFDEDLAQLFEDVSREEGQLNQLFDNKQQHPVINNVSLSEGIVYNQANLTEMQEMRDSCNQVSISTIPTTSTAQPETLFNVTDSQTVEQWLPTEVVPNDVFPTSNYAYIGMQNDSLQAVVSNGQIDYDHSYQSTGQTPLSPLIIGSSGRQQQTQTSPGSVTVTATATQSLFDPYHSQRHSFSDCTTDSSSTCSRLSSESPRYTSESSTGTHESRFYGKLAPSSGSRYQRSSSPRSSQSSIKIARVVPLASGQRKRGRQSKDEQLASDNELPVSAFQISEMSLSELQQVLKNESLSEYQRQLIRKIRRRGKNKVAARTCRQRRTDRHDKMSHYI

[20] = biological target: T3, Sentrin-specific protease 8 (Homo sapiens, UniProt Q96LD8); assay type: functional
T3 sequence (Q96LD8 whole entry): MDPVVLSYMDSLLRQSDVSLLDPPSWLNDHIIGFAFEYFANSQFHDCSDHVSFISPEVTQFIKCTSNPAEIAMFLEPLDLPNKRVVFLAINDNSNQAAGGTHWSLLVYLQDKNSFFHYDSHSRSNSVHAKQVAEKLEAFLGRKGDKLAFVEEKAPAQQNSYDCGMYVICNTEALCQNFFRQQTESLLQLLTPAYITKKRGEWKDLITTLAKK
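Wherever EC50 is given: HEK293 cells transfected with hcDAF12 and a DAF12 luciferase reporter; potency of agonists activating the hcDAF12 luciferase reporter.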

Chain of RAC-gamma serine/threonine-protein kinase (Q9Y243 whole entry): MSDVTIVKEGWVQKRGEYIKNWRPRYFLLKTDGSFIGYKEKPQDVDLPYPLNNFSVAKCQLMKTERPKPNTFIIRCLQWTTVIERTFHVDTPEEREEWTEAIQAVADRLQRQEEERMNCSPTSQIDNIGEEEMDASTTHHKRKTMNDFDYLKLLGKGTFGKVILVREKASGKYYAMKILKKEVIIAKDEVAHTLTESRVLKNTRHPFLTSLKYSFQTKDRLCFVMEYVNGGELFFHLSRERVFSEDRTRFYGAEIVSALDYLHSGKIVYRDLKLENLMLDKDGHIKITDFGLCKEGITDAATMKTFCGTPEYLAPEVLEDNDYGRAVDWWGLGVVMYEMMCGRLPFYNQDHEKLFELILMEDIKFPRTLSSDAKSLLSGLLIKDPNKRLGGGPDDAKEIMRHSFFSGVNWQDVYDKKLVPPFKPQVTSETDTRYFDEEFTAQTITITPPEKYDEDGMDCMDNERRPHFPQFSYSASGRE
Chain of Cyclin-dependent kinase 7 (P50613 whole entry): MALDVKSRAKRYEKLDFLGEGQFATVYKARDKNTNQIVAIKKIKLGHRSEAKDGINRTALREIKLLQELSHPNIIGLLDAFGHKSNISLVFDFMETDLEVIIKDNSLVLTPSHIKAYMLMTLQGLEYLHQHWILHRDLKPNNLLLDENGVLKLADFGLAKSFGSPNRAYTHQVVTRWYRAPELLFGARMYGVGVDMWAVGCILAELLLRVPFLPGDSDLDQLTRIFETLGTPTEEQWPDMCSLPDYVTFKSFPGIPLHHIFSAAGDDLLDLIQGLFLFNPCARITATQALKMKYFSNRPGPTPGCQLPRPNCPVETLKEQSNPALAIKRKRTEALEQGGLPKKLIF
Chain of Calcium/calmodulin-dependent protein kinase type 1 (Q14012 whole entry): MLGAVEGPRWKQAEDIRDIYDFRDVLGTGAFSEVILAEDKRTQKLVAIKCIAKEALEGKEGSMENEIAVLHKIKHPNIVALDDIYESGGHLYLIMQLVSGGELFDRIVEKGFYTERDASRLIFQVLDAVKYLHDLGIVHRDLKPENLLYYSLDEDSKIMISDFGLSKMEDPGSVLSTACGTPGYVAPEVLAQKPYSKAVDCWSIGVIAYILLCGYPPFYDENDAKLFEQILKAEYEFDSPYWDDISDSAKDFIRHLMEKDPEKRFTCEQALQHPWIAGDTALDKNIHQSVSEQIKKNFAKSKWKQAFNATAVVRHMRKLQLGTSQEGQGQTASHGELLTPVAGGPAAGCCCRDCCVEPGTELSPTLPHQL
Chain of Cell division cycle 7-related protein kinase (O00311 whole entry): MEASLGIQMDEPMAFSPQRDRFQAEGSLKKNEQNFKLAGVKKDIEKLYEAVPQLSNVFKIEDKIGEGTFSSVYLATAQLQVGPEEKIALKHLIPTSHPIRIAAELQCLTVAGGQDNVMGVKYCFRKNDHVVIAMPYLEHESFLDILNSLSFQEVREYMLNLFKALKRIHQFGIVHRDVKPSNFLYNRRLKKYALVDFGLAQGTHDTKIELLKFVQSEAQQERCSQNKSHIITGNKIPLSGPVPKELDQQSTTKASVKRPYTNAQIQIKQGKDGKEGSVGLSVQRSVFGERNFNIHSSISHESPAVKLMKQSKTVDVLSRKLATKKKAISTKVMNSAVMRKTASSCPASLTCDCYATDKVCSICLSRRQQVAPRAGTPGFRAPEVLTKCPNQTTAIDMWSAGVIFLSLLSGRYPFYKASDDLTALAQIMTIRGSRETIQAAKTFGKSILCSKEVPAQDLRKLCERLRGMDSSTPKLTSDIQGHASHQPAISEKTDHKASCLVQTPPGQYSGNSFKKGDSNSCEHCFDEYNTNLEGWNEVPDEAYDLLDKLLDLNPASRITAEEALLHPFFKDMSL
Chain of Heat shock cognate 71 kDa protein (P11142 whole entry): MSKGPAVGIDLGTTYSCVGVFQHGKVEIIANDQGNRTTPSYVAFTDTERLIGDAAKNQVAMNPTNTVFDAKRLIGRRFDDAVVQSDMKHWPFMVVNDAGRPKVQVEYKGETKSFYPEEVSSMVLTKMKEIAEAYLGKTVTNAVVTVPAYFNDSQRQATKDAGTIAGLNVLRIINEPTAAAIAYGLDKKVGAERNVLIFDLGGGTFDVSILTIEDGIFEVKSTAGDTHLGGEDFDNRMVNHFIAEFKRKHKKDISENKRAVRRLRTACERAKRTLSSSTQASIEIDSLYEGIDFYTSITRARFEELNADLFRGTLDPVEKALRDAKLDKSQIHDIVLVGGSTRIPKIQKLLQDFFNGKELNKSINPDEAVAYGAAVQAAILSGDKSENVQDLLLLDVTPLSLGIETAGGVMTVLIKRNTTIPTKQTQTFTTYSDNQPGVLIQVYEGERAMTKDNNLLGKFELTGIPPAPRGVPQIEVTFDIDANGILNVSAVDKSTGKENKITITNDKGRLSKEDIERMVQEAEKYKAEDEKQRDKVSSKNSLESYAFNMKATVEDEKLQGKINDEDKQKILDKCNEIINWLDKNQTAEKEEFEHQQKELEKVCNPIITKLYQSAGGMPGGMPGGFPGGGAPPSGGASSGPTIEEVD
Chain of Receptor-type tyrosine-protein kinase FLT3 (P36888 whole entry): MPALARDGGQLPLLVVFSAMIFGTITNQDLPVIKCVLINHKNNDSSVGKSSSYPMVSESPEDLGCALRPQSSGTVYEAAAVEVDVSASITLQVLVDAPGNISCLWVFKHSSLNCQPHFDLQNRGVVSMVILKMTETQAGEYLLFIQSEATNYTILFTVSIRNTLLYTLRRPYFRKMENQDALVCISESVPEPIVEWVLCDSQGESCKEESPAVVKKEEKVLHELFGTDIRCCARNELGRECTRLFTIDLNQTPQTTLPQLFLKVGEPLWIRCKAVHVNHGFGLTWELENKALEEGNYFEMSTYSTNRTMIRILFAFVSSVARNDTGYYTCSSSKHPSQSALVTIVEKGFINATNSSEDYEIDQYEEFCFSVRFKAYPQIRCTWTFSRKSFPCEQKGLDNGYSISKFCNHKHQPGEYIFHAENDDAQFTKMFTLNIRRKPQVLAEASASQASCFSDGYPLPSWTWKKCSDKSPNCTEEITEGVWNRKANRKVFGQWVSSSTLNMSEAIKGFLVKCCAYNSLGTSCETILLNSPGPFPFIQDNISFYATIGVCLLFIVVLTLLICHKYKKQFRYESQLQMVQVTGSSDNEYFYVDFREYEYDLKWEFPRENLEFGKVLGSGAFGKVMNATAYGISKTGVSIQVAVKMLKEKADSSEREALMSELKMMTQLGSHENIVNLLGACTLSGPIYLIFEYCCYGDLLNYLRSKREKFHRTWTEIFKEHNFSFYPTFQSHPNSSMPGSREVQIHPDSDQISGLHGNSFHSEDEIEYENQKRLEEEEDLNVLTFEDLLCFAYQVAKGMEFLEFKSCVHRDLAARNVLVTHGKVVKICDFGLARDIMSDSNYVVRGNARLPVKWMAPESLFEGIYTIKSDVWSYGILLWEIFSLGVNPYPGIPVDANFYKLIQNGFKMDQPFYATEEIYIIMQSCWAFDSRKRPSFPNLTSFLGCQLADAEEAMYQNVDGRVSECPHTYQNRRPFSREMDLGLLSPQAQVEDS
Chain of Serine/threonine-protein kinase pim-1 (P11309 whole entry): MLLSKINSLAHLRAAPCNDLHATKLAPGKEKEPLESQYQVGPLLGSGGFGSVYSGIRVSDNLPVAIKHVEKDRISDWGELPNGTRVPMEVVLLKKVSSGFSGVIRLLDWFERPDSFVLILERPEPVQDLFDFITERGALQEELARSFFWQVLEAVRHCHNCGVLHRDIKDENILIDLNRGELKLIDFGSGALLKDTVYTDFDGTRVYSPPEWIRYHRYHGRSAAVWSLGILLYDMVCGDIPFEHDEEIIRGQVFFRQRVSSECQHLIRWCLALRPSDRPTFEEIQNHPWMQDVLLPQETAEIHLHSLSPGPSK
Chain of Mitogen-activated protein kinase 8 (P45983 whole entry): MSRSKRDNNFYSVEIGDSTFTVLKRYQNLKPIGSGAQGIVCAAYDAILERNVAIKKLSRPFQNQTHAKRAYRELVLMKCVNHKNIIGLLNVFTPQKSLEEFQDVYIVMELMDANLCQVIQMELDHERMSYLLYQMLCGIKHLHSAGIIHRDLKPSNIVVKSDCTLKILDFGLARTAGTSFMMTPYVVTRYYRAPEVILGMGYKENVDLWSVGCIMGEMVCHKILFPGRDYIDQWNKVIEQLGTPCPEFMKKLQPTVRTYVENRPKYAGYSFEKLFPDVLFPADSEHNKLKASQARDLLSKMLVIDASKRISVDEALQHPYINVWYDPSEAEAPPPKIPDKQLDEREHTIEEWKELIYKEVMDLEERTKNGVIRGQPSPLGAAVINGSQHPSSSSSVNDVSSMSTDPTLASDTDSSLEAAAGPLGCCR
Chain of MAP kinase-activated protein kinase 5 (Q8IW41 whole entry): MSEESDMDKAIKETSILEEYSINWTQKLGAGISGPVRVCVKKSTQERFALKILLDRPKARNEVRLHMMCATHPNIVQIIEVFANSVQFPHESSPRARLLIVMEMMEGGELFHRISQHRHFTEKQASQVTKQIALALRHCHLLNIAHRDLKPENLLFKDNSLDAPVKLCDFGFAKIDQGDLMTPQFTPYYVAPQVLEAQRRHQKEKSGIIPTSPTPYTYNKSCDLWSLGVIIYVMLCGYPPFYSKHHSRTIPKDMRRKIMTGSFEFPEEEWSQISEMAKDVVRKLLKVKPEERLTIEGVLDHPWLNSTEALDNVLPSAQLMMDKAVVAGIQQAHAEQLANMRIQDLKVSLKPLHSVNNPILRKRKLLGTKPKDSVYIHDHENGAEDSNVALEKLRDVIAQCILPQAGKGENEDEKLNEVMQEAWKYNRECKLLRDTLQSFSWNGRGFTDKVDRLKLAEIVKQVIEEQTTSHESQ
Chain of Glyceraldehyde-3-phosphate dehydrogenase (P04406 whole entry): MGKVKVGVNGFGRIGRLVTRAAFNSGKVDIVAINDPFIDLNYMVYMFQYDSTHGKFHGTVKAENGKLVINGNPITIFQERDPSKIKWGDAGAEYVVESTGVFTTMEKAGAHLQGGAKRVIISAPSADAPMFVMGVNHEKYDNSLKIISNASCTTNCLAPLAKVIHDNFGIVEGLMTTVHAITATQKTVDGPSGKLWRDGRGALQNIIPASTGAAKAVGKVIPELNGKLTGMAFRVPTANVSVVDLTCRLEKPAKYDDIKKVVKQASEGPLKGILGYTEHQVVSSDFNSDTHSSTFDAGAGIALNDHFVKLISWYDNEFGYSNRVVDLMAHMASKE

For `Cc1n[nH]c2ccc(-c3cncc(OCC(N)Cc4cccc(Cl)c4)c3)cc12` (centres undefined), which Ki [1] is on record?
The Ki was > 1.26 µM (inactive).

What about the Ki [2] of the same compound?
Its Ki is > 7.94 µM (inactive).

And the Ki [3]?
The Ki was > 1.58 µM (inactive).

And the Ki [4]?
The Ki was 2.51 µM (active).

What about the Ki [5] of the same compound?
Its Ki is > 1.58 µM (inactive).

And the Ki (Insulin receptor)?
The Ki was 3.16 µM (active).

And the Ki [6]?
The Ki was 0.398 µM (active).

And the Ki [7]?
Its Ki is 0.00501 µM (active).

And the Ki [8]?
Its Ki is 0.000794 µM (active).

And the pKi [8]?
Its pKi is 9.1.

And the Ki [9]?
The Ki was 0.1 µM (active).

And the pKi [9]?
Its pKi is 7.

What about the Ki [10] of the same compound?
The Ki was > 10 µM (inactive).

And the Ki [11]?
Its Ki is 0.158 µM (active).

And the Ki [12]?
Its Ki is 0.02 µM (active).

And the pKi [12]?
Its pKi is 7.7.

And the Ki [13]?
Its Ki is 0.0794 µM (active).

What about the Ki [14] of the same compound?
Its Ki is 0.01 µM (active).

And the Ki [15]?
Its Ki is 0.00501 µM (active).

What about the pKi [15] of the same compound?
Its pKi is 8.3.

And the Ki [16]?
The Ki was 0.316 µM (active).

What about the Ki [17] of the same compound?
Its Ki is > 2.51 µM (inactive).

What does the source list for `O=C(O)C1Nc2c(O)cc(Cl)c([N+](=O)[O-])c2C2C=CCC12` (centres undefined)?
IC50 [18]: 37.8 µM (active); IC50 [19]: 175 µM (active)

With `O=C1N=C(NS(=O)(=O)Cc2ccccc2)S/C1=C1\C(=O)Nc2ccccc21` as the compound, how does the IC50 (Leucine aminopeptidase) read?
The IC50 was 26.7 µM (active).

With `CC(=O)NC1C(=O)N(CCN2CCOCC2)c2ccc(F)cc21` (centres undefined) as the compound, how does the IC50 (SUMO-activating enzyme) read?
The IC50 was 5.82 µM (active).

For `Clc1ccc2nc(-c3ccc(Br)s3)cn2c1`, which IC50 (Protein skinhead-1) is on record?
The IC50 was 57.5 µM (inactive).

What about the EC50 (cells) of the same compound?
The EC50 was > 67.5 µM (inactive).

For `O=C(CCc1ccccc1)NNc1cc(N2CCCCC2)nc(N2CCCCC2)n1`, which IC50 [20] is on record?
Its IC50 is 0.605 µM (active).

— ChEMBL document CHEMBL1201862, “PubChem BioAssay data set” (2004)
